Like-named read-outs stand apart in the source and are kept apart here.
Experiments:
VDRE = assay: Reporter gene (CAT) assay using reporter gene vector having VDRE; assay type: cell-based, African green monkey; settings: for VDRE-mediated transcription promoting activity: relative value with the EC50 value of 1α,25-dihydroxyvitamin D3 as 100%, COS-1 cells with rat vitamin D receptor expression vector, CAT ELISA, lower = more potent
Text: The reporter gene vector having VDRE used was a product produced by integrating VDRE ([…]) of a mouse osteopontin gene into a cassette vector (pGCAT; Kato S. et al., Cell (1992)68, 731-742) containing a promoter region (-109/+10) of rabbit β-globin and CAT (chloramphenicol acetyltransferase). As an expression vector for β-galactosidase used for correction of transfection efficiency, pCH110 (Pharmacia) was used. As a carrier vector, BSM (BluescribeM13+: […]) was used.
The rat vitamin D receptor expression vector used was a product obtained by integrating cDNA of a rat vitamin D receptor into pSG5 ([…]).
COS-1 cells were cultured in a DMEM medium containing 5% FBS and 10 nM insulin, and cultures were subcultured at intervals of 3 or 4 days at a density of 1,500 to 3,000 cells/cm^2. The conditions for culture were 37°C and 5% CO2. For cultivation of COS-1 cells during reporter gene assay, a phenol red-free DMEM medium containing 5% DCC-FBS (charcoal-treated FBS) and 10 nM insulin was used. COS-1 cells were seeded into a 6-well plate at a density of 5 to 8 x 10^4 cells/1.75 mL/well. […]
After overnight culture, each well was washed with 1 mL/well of a phenol red-free DMEM medium. […] Then, the amount of CAT expressed was measured using a CAT ELISA kit (Boehringer Mannheim).
The cell lysate (10 µL), 175 µL of Buffer Z (60 mM Na2HPO4, 40 mM NaH2PO4, 10 mM KCl, 1 mM MgSO4) and 35 µL of 4 mg/mL ONPG (o-nitrophenyl-β-D-galactopyranoside; SIGMA) were mixed in a 96-well plate (Nunc-Immuno plate Maxi Sorp Surface) and the system was incubated for 1 hour at 37°C. Then, 100 µL of 1M Na2CO3 was added to terminate the reaction and A415 was measured with a plate reader. Based on the measured values, the number of units of the cell lysate was calculated from the following equation and the cell lysate in an amount corresponding to 15 units was used in CAT ELISA measurement. […]
Based on the measured values of CAT ELISA, the EC50 value of each derivative was calculated to evaluate the VDRE-mediated action.

osteoporosis model rats [1] = assay type: in vivo; settings: OVX rats, third lumbar vertebra
Description: 7- to 9-week-old W-I female rats (Imamichi Institute for Animal Reproduction) were subject to ovariectomy. […] After the last dose, 24-hour urine was sampled and the blood was taken under ether anesthesia. After the animal was euthanized, the lumbar vertebrae were removed.
The lumbar bone mineral density was measured at the third lumbar vertebra site using a dual X-ray bone mineral content measuring device (DCS-600, ALOKA). The blood and urinary calcium concentrations and the urinary creatinine concentration were measured with an automatic analyzer (Model 7170, Hitachi).
Statistical processing was carried out using Statistic Analysis System (SAS) software. A comparison between a sham operation (sham) group and an ovariectomy (OVX) group was made by an unpaired t-test. A comparison between the OVX group and the drug treatment group, or a comparison between the sham group and the drug treatment group was made by Dunnett's multiple test. A P-value less then 5% was considered as a significant difference.

osteoporosis model rats [2] = assay: Bone mass decrease in osteoporosis model rats, oral treatment (Example 3); assay type: in vivo
Description: 8-week-old W-I female rats (Imamichi Institute for Animal Reproduction) were subjected to overiectomy. From the following day onward, 1α-hydroxyvitamin D3 was orally administered 5 times weekly in a daily dose of 0.1 µg/kg, or Compound No. 22 was orally administered daily for 5 weeks in a daily dose of 3 µg/kg given as a single dose or two divided doses. After the last dose, 24-hour urine was sampled and a blood sample was taken under ether anesthesia. After the animal was euthanized, the lumbar vertebrae were removed. The lumbar bone mineral density was measured at the third lumbar vertebra site using a dual X-ray bone mineral content measuring device (DCS-600EX, ALOKA). The blood and urinary calcium concentrations and the urinary creatinine concentration were measured with an automatic analyzer (Model 7170, Hitachi).
Statistical processing was carried out using basic software for statistical analysis (SAS). A comparison between the sham group and the OVX group, a comparison between the OVX group and the 1α-hydroxyvitamin D3 treatment group, or a comparison between the sham group and the 1α-hydroxyvitamin D3 treatment group was made by an unpaired t-test, with the p value less than 5% representing a significant difference. A comparison between the OVX group and the Compound No. 22 group, or a comparison between the sham group and the Compound No. 22 group was made by Dunnett's multiple test, with the p value less than 5% showing a significant difference.

NF-κB family = assay: Reporter gene (luciferase) assay using reporter gene vector having NF-κB binding sequence; assay type: cell-based, human; settings: IC37.5 value expressed as percentage of the value of 1α,25-dihydroxyvitamin D3 (100%); Jurkat cells with rat vitamin D receptor expression vector, PMA and ionomycin stimulation; lower = more potent
Text: (§1) A basic vector was constructed by inserting a promoter region (-72/+47) of a human IL-2 gene into a cassette vector of luciferase (pXP2; described in S.K. Nordeen, Biotechniques, Vol. 6, pp. 454-456, (1988)). For a reporter gene vector having an AP-1 binding sequence, five AP-1 binding sequences ([…]) of a human collagenase (MMP-1) gene were inserted tandem into the basic vector. For a reporter gene vector having an NF-κB binding sequence, four NF-κB binding sequences ([…]) of a human immunoglobulin light chain κ gene were inserted tandem into the basic vector. The resulting products were used as the respective reporter gene vectors.
(§2) The rat vitamin D receptor expression vector used was a product obtained by inserting cDNA of a rat vitamin D receptor (described in James K. Burmester et al., Proc. Natl. Acad. Sci. USA, Vol. 85, pp. 9499-9502, […]) into the pSG5 ([…]).
(§3) Jurkat cells were cultured in RPMI-1640 (GIBCO BRL) containing 10% FBS and antibiotics. The culture was started at a density of 5 x 10^4 cells/mL and the cells were subcultured at intervals of 3 or 4 days to a density of 5 x 10^4 cells/mL. The conditions for culture were 37°C and 5% CO2. […] Both of the solutions were mixed and then allowed to stand for 30 minute at room temperature.

osteoporosis model rats [3] = assay: Bone strength decrease and bone resorption in osteoporosis model rats, oral treatment (Example 4); assay type: in vivo
Description: 13-month-old W-I female rats (Imamichi Institute for Animal Reproduction) were subject to overiectomy. From the following day onward, Compound No. 22 was administered p.o. daily for 3 months in a daily dose of 1.5 to 6 µg/kg given as two divided doses. After the last dose, 24-hour urine was sampled and a blood sample was taken under ether anesthesia. After the animal was euthanized, the lumbar vertebrae were removed.
The lumbar bone mineral density was measured at the second to fourth lumbar vertebra site using a dual X-ray bone mineral content measuring device (DCS-600EX, ALOKA). The bone strength of the fifth lumbar vertebra was measured with Autograph AG-2000E (Shimadzu Corp.). The blood calcium concentration and the urinary creatinine concentration were measured with an automatic analyzer (Model 7170, Hitachi). The urinary deoxypyridinoline was measured with Osteolinks DPD.
Statistical Analysis was carried out using Statistic Analysis System (SAS) software. A comparison between the sham group and the OVX group was made by an unpaired t-test. A comparison between the OVX group and the Compound No. 22 treatment group, or a comparison between the sham group and the Compound No. 22 treatment group was made by Dunnett's multiple test, with the p value less than 5% showing a significant difference.

vitamin D receptor = molecular target: T1, vitamin D receptor (Homo sapiens, UniProt P11473); assay: Affinity for vitamin D receptor; assay type: binding; settings: relative to that of 1α,25-dihydroxyvitamin D3
T1 sequence (P11473 1-427): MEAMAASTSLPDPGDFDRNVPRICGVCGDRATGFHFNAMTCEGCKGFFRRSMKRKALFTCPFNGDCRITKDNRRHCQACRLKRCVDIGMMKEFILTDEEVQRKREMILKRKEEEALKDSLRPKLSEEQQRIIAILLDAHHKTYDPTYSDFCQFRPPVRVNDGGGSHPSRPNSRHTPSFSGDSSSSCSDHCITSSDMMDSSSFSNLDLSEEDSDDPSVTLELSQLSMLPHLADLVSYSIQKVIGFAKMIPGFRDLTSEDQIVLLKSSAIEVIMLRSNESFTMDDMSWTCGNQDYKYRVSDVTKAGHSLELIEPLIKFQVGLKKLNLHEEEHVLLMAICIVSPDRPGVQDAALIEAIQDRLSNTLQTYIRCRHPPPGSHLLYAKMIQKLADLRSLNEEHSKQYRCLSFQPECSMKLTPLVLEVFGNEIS

AP-1 complex = assay: Reporter gene (luciferase) assay using reporter gene vector having AP-1 binding sequence; assay type: cell-based, human; settings: IC37.5 value expressed as percentage of the value of 1α,25-dihydroxyvitamin D3 (100%); Jurkat cells with rat vitamin D receptor expression vector, PMA and ionomycin stimulation; lower = more potent
Text: as §1, §2, §3

[4] = OVX rats, 0.1 µg/kg orally 5 times weekly, in comparison with the sham group and the OVX group

Row | SMILES | VDRE-mediated transcription promoting activity (VDRE) [%] | decrease in bone mineral density (osteoporosis model rats [1]; 0.04 µg/kg subcutaneously 5 times weekly for 6 weeks) | decrease in bone mineral density by OVX (osteoporosis model rats [2]; 0.1 µg/kg orally 5 times weekly, third lumbar vertebra) | blood Ca level (osteoporosis model rats [2]; [4]) | urinary Ca excretion (osteoporosis model rats [2]; [4]) | VDRE-mediated transcription promoting activity relative to that of 1α,25-dihydroxyvitamin D3 (VDRE; fraction of the activity of 1α,25-dihydroxyvitamin D3) | Inhibitory activity against NF-κB family (NF-κB family) [%] | decrease in bone mineral density (osteoporosis model rats [1]; 0.1 µg/kg subcutaneously 5 times weekly for 6 weeks) | decrease in bone mineral density (osteoporosis model rats [1]; doses of 0.01 to 0.1 µg/kg subcutaneously 5 times weekly for 6 weeks) | serum Ca concentration (osteoporosis model rats [3]; OVX rats, orally 0.75, 1.5 or 3 µg/kg twice daily for 3 months) | urinary Dpyr excretion increased by OVX (osteoporosis model rats [3]; oral treatment twice daily for 3 months, urinary deoxypyridinoline, bone resorption marker) | decrease in the bone strength by OVX (osteoporosis model rats [3]; orally 0.75, 1.5 or 3 µg/kg twice daily for 3 months, fifth lumbar vertebra) | decrease in the bone mineral density by OVX (osteoporosis model rats [3]; orally 0.75, 1.5 or 3 µg/kg twice daily for 3 months, second to fourth lumbar vertebra) | affinity for a vitamin D receptor (vitamin D receptor) [times] | effect of suppressing the decrease in bone mineral density (osteoporosis model rats [2]; OVX rats, orally 3 µg/kg once daily or 1.5 µg/kg twice daily for 5 weeks, third lumbar vertebra) | Inhibitory activity against AP-1 complex (AP-1 complex) [%]
1 | C=C1/C(=C\C=C2/CCC[C@]3(C)[C@@H]([C@H](C)CCCC(C)(C)O)CC[C@@H]23)C[C@@H](O)C[C@@H]1O [1α,25-dihydroxyvitamin D3, reference compound] | 100.00 | significantly suppressed | – | – | – | – | – | – | – | – | – | – | – | – | – | –
2 | C=C1/C(=C\C=C2/CCC[C@]3(C)[C@@H]([C@H](C)CCCC(C)C)CC[C@@H]23)C[C@@H](O)C[C@@H]1O [1α-hydroxyvitamin D3] | – | – | significantly suppressed | significantly increased | significantly increased | – | – | – | – | – | – | – | – | – | – | –
3 | C=C1/C(=C\C=C2/CCC[C@]3(C)C([C@@H](C)SCC(O)(CC)CC)=CC[C@@H]23)C[C@@H](O)C[C@@H]1O [Compound 22, 1α,3β-dihydroxy-20(R)-(2-ethyl-2-hydroxybutylthio)-9,10-secopregna-5,7,10(19),16-tetraene] | 1032.20 | – | – | – | – | about 1/10 | 5.19 | significant suppressing effect | dose-dependent effect of suppressing the decrease in bone mineral density | without increases | significantly decreased | significantly suppressed | significantly suppressed | 0.8 | comparable to or higher than that of 1α-hydroxyvitamin D3 | 3.74

From patent publication EP1158297A1, “METHOD FOR SCREENING COMPOUND HAVING AFFINITY FOR VITAMIN D RECEPTOR” (CHUGAI SEIYAKU KABUSHIKI KAISHA, priority 1999, dated 2000)
